# US20100331320A1, “CYCLIC INHIBITORS OF 11BETA-HYDROXYSTEROID DEHYDROGENASE 1” (Vitae Pharmaceuticals, Inc., priority 2009, published 2010)
# pIC50: −log10 of the molar value.
# Experiments:
# 11β-HSD1 = biological target: T1, 11β-HSD1 (Homo sapiens, UniProt P28845); experiment: biochemical; conditions: read-out: Average % control inhibition at 100 nM
# T1 construct: detecting cortisol generated from cortisterone by human liver microsomes
# Description: Briefly, compounds were incubated for 1 hour at 37° C. in Tris buffer (20 mM tris, 5 mM EDTA, pH 6.0) containing NADPH (200 μM) and cortisone (80 nM). Cortisol generated in the reaction was then detected with a competitive immunoassay, involving two HTRF conjugates: cortisol linked to XL665 and anti-cortisol antibody labeled with Europium cryptate. The incubation period for detection reaction was typically 2 hours. […] The ratio of the two emission signals was then calculated (Em665*10000/Em615). […] Each assay also contained a calibration curve with cortisol to transform the fluorescent data into cortisol concentrations. Percent inhibition of each compound was determined relative to the carbenoxolone signal.
# CYP3A4 = CYP3A4 (Homo sapiens, UniProt P08684); experiment: Biological Test Example 6: CYP3A4 Inhibition ([N-methyl-14C]-Erythromycin N-demethylation); format: in vitro ADME; conditions: recombinant CYP3A4, probe [N-methyl-14C]-Erythromycin (50 μM)
# [1] = Slurry experiment on stability of the crystalline form (water suspension, XRPD); format: physicochemical; conditions: for stability of the anhydrous state: during the measurement by XRPD (30 minutes); for polymorphic change after slurry in water: suspended in water for up to seven days, XRPD of the filtration residue
# Description: In this study, a suspension of the monohydrate of Example 48 was suspended in water for up to seven days. After the treatment, the mixtures were filtered and an x-ray powder diffraction of the filtration residue was measured.
# In this study, a suspension of the monohydrate of Example 75 was suspended in water for up to seven days. After the treatment, the mixtures were filtered and an x-ray powder diffraction of the filtration residue was measured.
# T1 sequence (P28845 whole entry): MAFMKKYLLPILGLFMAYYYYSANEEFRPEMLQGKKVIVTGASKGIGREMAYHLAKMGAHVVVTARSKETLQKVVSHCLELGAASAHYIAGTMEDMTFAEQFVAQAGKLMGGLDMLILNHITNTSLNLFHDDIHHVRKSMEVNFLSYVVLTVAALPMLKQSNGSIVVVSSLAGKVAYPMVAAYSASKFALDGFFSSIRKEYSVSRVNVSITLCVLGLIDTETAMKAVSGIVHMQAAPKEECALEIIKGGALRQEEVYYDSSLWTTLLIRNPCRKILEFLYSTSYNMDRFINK
# CYP3A4, sequence (P08684 whole entry): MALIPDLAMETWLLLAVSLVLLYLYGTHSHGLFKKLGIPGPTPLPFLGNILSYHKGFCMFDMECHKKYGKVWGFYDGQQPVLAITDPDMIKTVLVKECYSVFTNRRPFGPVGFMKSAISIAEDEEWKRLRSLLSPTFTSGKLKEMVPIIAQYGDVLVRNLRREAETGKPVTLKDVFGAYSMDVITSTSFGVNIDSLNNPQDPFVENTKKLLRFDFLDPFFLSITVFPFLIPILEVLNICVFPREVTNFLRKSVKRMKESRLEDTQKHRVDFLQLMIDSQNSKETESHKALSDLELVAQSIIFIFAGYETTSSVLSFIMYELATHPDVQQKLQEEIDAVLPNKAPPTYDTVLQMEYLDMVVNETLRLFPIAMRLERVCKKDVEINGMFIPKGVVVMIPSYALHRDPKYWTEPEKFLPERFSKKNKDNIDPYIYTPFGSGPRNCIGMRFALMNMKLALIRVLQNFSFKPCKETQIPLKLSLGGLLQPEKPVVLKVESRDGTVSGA
Structure (SMILES),percent inhibition at 0.1 µM (11β-HSD1) [%],also measured
"C[C@@H](c1ccc(-c2cc(=O)n(C)cc2F)cc1)N1CC[C@](CC(C)(C)O)(c2ccccc2)OC1=O [Example 79, 3-{(S)-1-[4-(5-Fluoro-1-methyl-2-oxo-1,2-dihydro-pyridin-4-yl)-phenyl]-ethyl}-(S)-6-(2-hydroxy-2-methyl-propyl)-6-phenyl-[1,3]oxazinan-2-one]",15,
"C[C@@H](c1ccc(-c2ccn(CC(C)(C)O)c(=O)c2)cc1)N1CC[C@](CC(C)(C)O)(c2ccccc2)OC1=O [Example 80, (S)-6-(2-Hydroxy-2-methyl-propyl)-3-((S)-1-{4-[1-(2-hydroxy-2-methyl-propyl)-2-oxo-1,2-dihydro-pyridin-4-yl]-phenyl}-ethyl)-6-phenyl-[1,3]oxazinan-2-one]",37,
"COCC(C)Cn1ccc(-c2ccc([C@H](C)N3CC[C@](CC(C)(C)O)(c4ccccc4)OC3=O)cc2)cc1=O (stereo partly drawn) [Example 81, (S)-6-(2-Hydroxy-2-methyl-propyl)-3-((S)-1-{4-[1-(3-methoxy-2-methyl-propyl)-2-oxo-1,2-dihydro-pyridin-4-yl]-phenyl}-ethyl)-6-phenyl-[1,3]oxazinan-2-one]",11,
"CC(CO)Cn1ccc(-c2ccc([C@H](C)N3CC[C@](CC(C)(C)O)(c4ccccc4)OC3=O)cc2)cc1=O (stereo partly drawn) [Example 82, (S)-6-(2-Hydroxy-2-methyl-propyl)-3-((S)-1-{4-[1-(3-hydroxy-2-methyl-propyl)-2-oxo-1,2-dihydro-pyridin-4-yl]-phenyl}-ethyl)-6-phenyl-[1,3]oxazinan-2-one]",-12,
"COC(C)(C)Cn1ccc(-c2ccc([C@H](C)N3CC[C@](CC(C)(C)O)(c4ccccc4)OC3=O)cc2)cc1=O [Example 83, (S)-6-(2-Hydroxy-2-methyl-propyl)-3-(1-{4-[1-(2-methoxy-2-methyl-propyl)-2-oxo-1,2-dihydro-pyridin-4-yl]-phenyl}-ethyl)-6-phenyl-[1,3]oxazinan-2-one]",54,pIC50 (CYP3A4): < 4.30
"C[C@@H](c1ccc(-c2ccn(CC(C)(C)CO)c(=O)c2)cc1)N1CC[C@](CC(C)(C)O)(c2ccccc2)OC1=O [Example 90, 3-((S)-1-{4-[1-(3-Hydroxy-2,2-dimethyl-propyl)-2-oxo-1,2-dihydro-pyridin-4-yl]-phenyl}-ethyl)-(S)-6-(2-hydroxy-2-methyl-propyl)-6-phenyl-[1,3]oxazinan-2-one]",4,
"C[C@@H](c1ccc(-c2ccn(C)c(=O)c2)cc1)N1CC[C@](CC(C)(C)O)(c2ccccc2)OC1=O [anhydrous form of Example 48, (S)-6-(2-hydroxy-2-methylpropyl)-3-((S)-1-(4-(1-methyl-2-oxo-1,2-dihydropyridin-4-yl)phenyl)ethyl)-6-phenyl-1,3-oxazinan-2-one]",,stability of the anhydrous state [1]: did not remain in the anhydrous state
"C[C@@H](c1ccc(-c2ccn(C3CC3)c(=O)c2)cc1)N1CC[C@](CC(C)(C)O)(c2ccccc2)OC1=O [anhydrous form of Example 75, 3-{(S)-1-[4-(1-Cyclopropyl-2-oxo-1,2-dihydro-pyridin-4-yl)-phenyl]-ethyl}-(S)-6-(2-hydroxy-2-methyl-propyl)-6-phenyl-[1,3]oxazinan-2-one]",,stability of the anhydrous state [1]: did not remain in the anhydrous state
"C[C@@H](c1ccc(-c2ccn(C)c(=O)c2)cc1)N1CC[C@](CC(C)(C)O)(c2ccccc2)OC1=O [monohydrate of Example 48, (S)-6-(2-hydroxy-2-methylpropyl)-3-((S)-1-(4-(1-methyl-2-oxo-1,2-dihydropyridin-4-yl)phenyl)ethyl)-6-phenyl-1,3-oxazinan-2-one]",,polymorphic change after slurry in water [1]: No polymorphic change was observed
"C[C@@H](c1ccc(-c2ccn(C3CC3)c(=O)c2)cc1)N1CC[C@](CC(C)(C)O)(c2ccccc2)OC1=O [monohydrate of Example 75, 3-{(S)-1-[4-(1-Cyclopropyl-2-oxo-1,2-dihydro-pyridin-4-yl)-phenyl]-ethyl}-(S)-6-(2-hydroxy-2-methyl-propyl)-6-phenyl-[1,3]oxazinan-2-one]",,polymorphic change after slurry in water [1]: No polymorphic change was observed
